From ChEMBL document CHEMBL5113545, “Selective Cyclin-Dependent Kinase Inhibitors and Their Application in Cancer Therapy” (ACS Med Chem Lett, 2022)

Biological target: Cyclin-dependent kinase 2/cyclin E1 (Homo sapiens, UniProt P24941)
Assay: Inhibition of human full length recombinant C-terminal 6His-tagged CDK2/N-terminal GST-tagged cyclin E1 expressed in baculovirus-infected Sf21 cells using 5-FAM- QSPKKG peptide as substrate preincubated with enzyme and ATP for 30 mins followed by substrate addition and measured after 20 hrs by fluorescence- based microfluidic mobility shift assay

IC50 [nM] | SMILES
≤ 100 | Cc1cc(CC(=O)Nc2cc([C@H]3CC[C@@H](OC(=O)N4CCC4(C)C)C3)[nH]n2)on1
≤ 100 | Cc1ncc(CC(=O)Nc2cc([C@H]3CC[C@@H](OC(=O)NC(C)C)C3)[nH]n2)s1
≤ 100 | COc1cc(CC(=O)Nc2cc([C@H]3CC[C@@H](OC(=O)NC(C)C)C3)[nH]n2)ccn1
≤ 100 | CC(C)NC(=O)O[C@H]1CC[C@@H](c2cc(NC(=O)c3ccnn3C)n[nH]2)C1
≤ 100 | CC(C)NC(=O)O[C@@H]1CC[C@H](c2cc(NC(=O)Cc3ccccc3S(C)(=O)=O)n[nH]2)C1
≤ 100 | CC1(NC(=O)O[C@@H]2CC[C@H](c3cc(NC(=O)Cc4ccccc4)n[nH]3)C2)CC1
≤ 100 | CC(C)NC(=O)O[C@@H]1CC[C@H](c2cc(NC(=O)c3ccnc4ncsc34)n[nH]2)C1
≤ 100 | CC(C)NC(=O)O[C@@H]1CC[C@H](c2cc(NC(=O)c3ccnn3C)n[nH]2)C1
≤ 100 | Cc1cc(CC(=O)Nc2cc([C@H]3CCC[C@@H](OC(=O)NC4(C)CC4)CC3)[nH]n2)on1
≤ 100 | COCc1cc(C(=O)Nc2cc([C@H]3CC[C@@H](OC(=O)N(C)C(C)C)C3)[nH]n2)n(C)n1
≤ 100 | CC1(NC(=O)O[C@H]2CC[C@@H](c3cc(NC(=O)Cc4ccccc4)n[nH]3)C2)CC1
≤ 100 | CC(C)NC(=O)O[C@@H]1CC[C@H](c2cc(NC(=O)Cc3ccccc3)n[nH]2)C1
